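These data come from cells grown in 96-well plates and exposed to compound for 48 hours at five concentrations. At the GI50, growth is halved. TGI is the concentration that stops growth completely.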
How the values were obtained:
Assay in all cases: NCI tumour cell line growth inhibition, 48 h
[1] = test system: OVCAR-4 ovarian
[2] = test system: SW-620 colon
[3] = test system: OVCAR-3 ovarian
[4] = test system: UACC-257 melanoma
[5] = test system: SF-295 CNS
[6] = test system: MDA-MB-435
[7] = test system: NCI-H522 lung
[8] = test system: NCI/ADR-RES ovarian
[9] = test system: LOX IMVI melanoma
[10] = test system: CAKI-1 renal
[11] = test system: HT29 colon
[12] = test system: HOP-92 NSCLC
[13] = test system: HOP-62 NSCLC
[14] = test system: BT-549 breast
[15] = test system: MCF7 breast
[16] = test system: OVCAR-8 ovarian
[17] = test system: SF-268 CNS
[18] = test system: IGROV1 ovarian
[19] = test system: SK-MEL-28 melanoma
[20] = test system: NCI-H460 lung
[21] = test system: NCI-H23 lung
[22] = test system: HCT-116 colon
[23] = test system: SN12C renal
[24] = test system: SNB-19 CNS
[25] = test system: RPMI-8226 leukemia
[26] = test system: CCRF-CEM leukemia
[27] = test system: A498 renal
[28] = test system: T-47D breast
[29] = test system: K-562 leukemia
[30] = test system: KM12 colon
[31] = test system: SK-OV-3 ovarian
[32] = test system: 786-0 renal
[33] = test system: SF-539 CNS
[34] = test system: UACC-62 melanoma
[35] = test system: SK-MEL-5 melanoma
[36] = test system: OVCAR-5 ovarian
[37] = test system: UO-31 renal
[38] = test system: MALME-3M melanoma
[39] = test system: SK-MEL-2 melanoma
[40] = test system: HS 578T breast
[41] = test system: PC-3 prostate
[42] = test system: A549 NSCLC
[43] = test system: NCI-H226 lung
[44] = test system: COLO 205 colon
[45] = test system: HL-60(TB) leukemia
[46] = test system: TK-10 renal
[47] = test system: MDA-MB-231 breast
[48] = test system: U251 CNS
[49] = test system: EKVX NSCLC
[50] = test system: HCC-2998 colon
[51] = test system: SR leukemia
[52] = test system: ACHN renal
[53] = test system: RXF 393 renal
[54] = test system: DU-145 prostate
[55] = test system: SNB-75 CNS
[56] = test system: MOLT-4 leukemia
[57] = test system: HCT-15 colon

Question: Which GI50 [1] does the source give for `CCC(=C(c1ccc(OCCN(C)C)cc1)c1ccc(OCCN(C)C)cc1)c1ccc(Cl)cc1` here?
Answer: 3.39 µM

Question: What about the TGI [1] of the same molecule?
Answer: 7.36 µM

Question: And the GI50 [2]?
Answer: 0.549 µM

Question: And the TGI [2]?
Answer: 1.22 µM

Question: What about the GI50 [3] of the same molecule?
Answer: 0.804 µM

Question: And the TGI [3]?
Answer: 2.74 µM

Question: What about the GI50 [4] of the same molecule?
Answer: 3.7 µM

Question: And the TGI [4]?
Answer: 7.39 µM

Question: What about the GI50 [5] of the same molecule?
Answer: 3.09 µM

Question: What about the TGI [5] of the same molecule?
Answer: 6.49 µM

Question: What about the GI50 [6] of the same molecule?
Answer: 0.575 µM

Question: What about the TGI [6] of the same molecule?
Answer: 1.41 µM

Question: What about the GI50 [7] of the same molecule?
Answer: 1.96 µM

Question: And the TGI [7]?
Answer: 5.77 µM

Question: What about the GI50 [8] of the same molecule?
Answer: 3.22 µM

Question: What about the TGI [8] of the same molecule?
Answer: 6.68 µM

Question: And the GI50 [9]?
Answer: 0.43 µM

Question: What about the TGI [9] of the same molecule?
Answer: 0.848 µM

Question: What about the GI50 [10] of the same molecule?
Answer: 3.17 µM

Question: What about the TGI [10] of the same molecule?
Answer: 6.48 µM

Question: What about the GI50 [11] of the same molecule?
Answer: 0.427 µM

Question: And the TGI [11]?
Answer: 1.11 µM

Question: And the GI50 [12]?
Answer: 0.736 µM

Question: And the TGI [12]?
Answer: 4.01 µM

Question: What about the GI50 [13] of the same molecule?
Answer: 3.67 µM

Question: And the TGI [13]?
Answer: 7.95 µM

Question: And the GI50 [14]?
Answer: 4.29 µM

Question: What about the TGI [14] of the same molecule?
Answer: 8.38 µM

Question: What about the GI50 [15] of the same molecule?
Answer: 0.522 µM

Question: And the TGI [15]?
Answer: 1.67 µM

Question: What about the GI50 [16] of the same molecule?
Answer: 3.21 µM

Question: And the TGI [16]?
Answer: 6.96 µM

Question: What about the GI50 [17] of the same molecule?
Answer: 3.54 µM

Question: What about the TGI [17] of the same molecule?
Answer: 7.48 µM

Question: What about the GI50 [18] of the same molecule?
Answer: 2.17 µM

Question: What about the TGI [18] of the same molecule?
Answer: 5.6 µM

Question: What about the GI50 [19] of the same molecule?
Answer: 0.462 µM

Question: What about the TGI [19] of the same molecule?
Answer: 0.888 µM

Question: And the GI50 [20]?
Answer: 2.67 µM

Question: What about the TGI [20] of the same molecule?
Answer: 6.03 µM

Question: What about the GI50 [21] of the same molecule?
Answer: 3.65 µM

Question: What about the TGI [21] of the same molecule?
Answer: 7.26 µM

Question: And the GI50 [22]?
Answer: 2.58 µM

Question: And the TGI [22]?
Answer: 6.24 µM

Question: What about the GI50 [23] of the same molecule?
Answer: 3.76 µM

Question: What about the TGI [23] of the same molecule?
Answer: 7.52 µM

Question: And the GI50 [24]?
Answer: 2.84 µM

Question: What about the TGI [24] of the same molecule?
Answer: 6.29 µM

Question: And the GI50 [25]?
Answer: 0.598 µM

Question: And the TGI [25]?
Answer: 1.46 µM

Question: And the GI50 [26]?
Answer: 0.609 µM

Question: What about the TGI [26] of the same molecule?
Answer: 1.79 µM

Question: And the GI50 [27]?
Answer: 3.58 µM

Question: And the TGI [27]?
Answer: 7.07 µM

Question: What about the GI50 [28] of the same molecule?
Answer: 3.17 µM

Question: And the TGI [28]?
Answer: 8.03 µM

Question: And the GI50 [29]?
Answer: 0.541 µM

Question: What about the TGI [29] of the same molecule?
Answer: 1.77 µM

Question: What about the GI50 [30] of the same molecule?
Answer: 2.54 µM

Question: And the TGI [30]?
Answer: 5.67 µM

Question: And the GI50 [31]?
Answer: 4.26 µM

Question: What about the TGI [31] of the same molecule?
Answer: 8.08 µM

Question: What about the GI50 [32] of the same molecule?
Answer: 3.7 µM

Question: And the TGI [32]?
Answer: 7.72 µM

Question: What about the GI50 [33] of the same molecule?
Answer: 2.75 µM

Question: What about the TGI [33] of the same molecule?
Answer: 6.1 µM

Question: And the GI50 [34]?
Answer: 0.492 µM

Question: What about the TGI [34] of the same molecule?
Answer: 1.12 µM

Question: What about the GI50 [35] of the same molecule?
Answer: 3.99 µM

Question: And the TGI [35]?
Answer: 7.49 µM

Question: What about the GI50 [36] of the same molecule?
Answer: 3.91 µM

Question: What about the TGI [36] of the same molecule?
Answer: 7.56 µM

Question: And the GI50 [37]?
Answer: 3.23 µM

Question: What about the TGI [37] of the same molecule?
Answer: 6.6 µM

Question: And the GI50 [38]?
Answer: 0.855 µM

Question: And the TGI [38]?
Answer: 3.3 µM

Question: And the GI50 [39]?
Answer: 4.48 µM

Question: What about the TGI [39] of the same molecule?
Answer: 8.49 µM

Question: What about the GI50 [40] of the same molecule?
Answer: 3.48 µM

Question: What about the TGI [40] of the same molecule?
Answer: 7.79 µM

Question: And the GI50 [41]?
Answer: 1.26 µM

Question: What about the TGI [41] of the same molecule?
Answer: 4.56 µM

Question: And the GI50 [42]?
Answer: 2.56 µM

Question: And the TGI [42]?
Answer: 6.32 µM

Question: What about the GI50 [43] of the same molecule?
Answer: 4.12 µM

Question: What about the TGI [43] of the same molecule?
Answer: 8.41 µM

Question: And the GI50 [44]?
Answer: 1.14 µM

Question: What about the TGI [44] of the same molecule?
Answer: 4.77 µM

Question: And the GI50 [45]?
Answer: 0.522 µM

Question: And the TGI [45]?
Answer: 1.23 µM

Question: What about the GI50 [46] of the same molecule?
Answer: 4.05 µM

Question: And the TGI [46]?
Answer: 7.75 µM

Question: What about the GI50 [47] of the same molecule?
Answer: 2.42 µM

Question: What about the TGI [47] of the same molecule?
Answer: 5.75 µM

Question: What about the GI50 [48] of the same molecule?
Answer: 0.67 µM

Question: And the TGI [48]?
Answer: 2.29 µM

Question: And the GI50 [49]?
Answer: 3.85 µM

Question: What about the TGI [49] of the same molecule?
Answer: 7.67 µM

Question: What about the GI50 [50] of the same molecule?
Answer: 2.04 µM

Question: What about the TGI [50] of the same molecule?
Answer: 5.73 µM

Question: And the GI50 [51]?
Answer: 0.659 µM

Question: And the TGI [51]?
Answer: 4.74 µM

Question: What about the GI50 [52] of the same molecule?
Answer: 1.31 µM

Question: What about the TGI [52] of the same molecule?
Answer: 4.33 µM

Question: And the GI50 [53]?
Answer: 0.897 µM

Question: And the TGI [53]?
Answer: 4.15 µM

Question: And the GI50 [54]?
Answer: 3.11 µM

Question: What about the TGI [54] of the same molecule?
Answer: 6.67 µM

Question: What about the GI50 [55] of the same molecule?
Answer: 3.32 µM

Question: What about the TGI [55] of the same molecule?
Answer: 7.53 µM

Question: What about the GI50 [56] of the same molecule?
Answer: 0.745 µM

Question: And the TGI [56]?
Answer: 2.41 µM

Question: What about the GI50 [57] of the same molecule?
Answer: 0.77 µM

Question: And the TGI [57]?
Answer: 2.67 µM
